Assay results: patent US11298339B2 (priority 2017, dated 2022)

Assays:
Format in all cases: in vivo, C57BL/6J mice
HBV [1] = test: Comparison of Compound 1 and Birinapant in chronic HBV infection mouse model (pAAV-HBV1.2 plasmid); conditions: for proportion of mice with serum HBsAg levels below the lower limit of detection: after 4 weeks of administration; for serum HBsAg level (individual): after one week of drug treatment
Method: Among them, there were 7 mice in each of Group A and Group B, and 6 mice in Group C. Compound 1 and Birinapant were administered once a week for five consecutive weeks. Blood was collected at orbital margin each week before the administration, and the HBsAg/HBeAg levels in supernatant were detected using Roche 601 instrument.

HBV [2] = test: Compound 1 alone in chronic HBV infection mouse model (high-pressure tail vein injection of pAAV-HBV1.2 plasmid)
Method: Male C57/B6 mice (6-8 weeks of age, body weight 20 f 2 g) were selected to establish a high-pressure tail vein injection mouse model, in which the tail of mice was wiped with 75% alcohol, and then irradiated with a far-infrared physiotherapy device for 2 to 3 minutes so that the tail vein of mice was turgid and clearly visible. […] Each mouse was injected with 10 μg of pAAV/HBV1.2 plasmid, and the amount of injection liquid (PBS) was 10% of body weight (2 mL/20 g). On the 14th day after the injection, blood was collected to detect HBsAg, and the successfully modeled mice with HBsAg>500 IU/ml were selected for further experiments (Huang, Wu et al. 2006; Chou, Chien et al. 2015). […] There were 6-8 mice in each group, which were administered once a week for 4 consecutive times and observed for 7 weeks.
After the mice serum were diluted 20-fold with PBS, the HBsAg and HBeAg titers of the serum were detected by using Abbott i2000SR microparticle chemiluminescence automatic detector. The serum HBV DNA was extracted by QIAamp DNA Mini Kit (Qiagen), the HBV DNA level in serum was quantified by Realtime-PCR (LightCycler 480, Roche) using DNA Amplification SYBR Green Kit (Roche), and the HBV plasmid PSM2 products with a series of concentration gradients were used as standards. The HBV primers used in this experiment were synthesized by Invitrogen (Shanghai) Trading Co., Ltd., and the primer sequences were as follows: HBV Hope-F (5′ to 3′ […]) and HBV Hope-R (5′ to 3′ […]). The liver tissues of mice were subjected to conventional formalin-fixation and paraffin-embedding, the resultant 4 μm sections were baked at 65° C. for 2 h, dehydrated with conventional ethanol gradients, infiltrated with hydrogen peroxide at room temperature for 30 min, washed with PBS for 5 min/time, 3 times in total, and blocked at room temperature for 1 h. After rabbit-anti-human HBcAg (B0586, DAKO) was added and incubated in a wet box at room temperature for 1 h, a GTvision III immunohistochemical detection kit of anti-rabbit anti-mice general type (GK50075, Shanghai Gene Technology Co., Ltd.) was used for incubation of secondary antibodies and development of color, and pictures at 200× magnification were taken with a normal optical upright microscope. 60 mg of liver tissue homogenate was weighed, added with 900 μl of lysate (50 mmol/L Tris-HCl PH 7.5+1 mmol/L EDTA), placed on ice, and after all samples were processed, 5 μl of […] was added and lysis was performed on ice, and then HBV DNA in liver tissue was extracted with phenol/chloroform, dissolved by adding 15 μl of RNase free water, run on a 1% agarose gel, transferred to membrane; then a full-length HBV probe labeled with digoxin was added, stood overnight at 46° C., subjected to DIG Washing Buffer once for 5 min, added with Anti-Digoxigenin-Ap Fab fragment (11093274910, Roche), and Image Quant LAS 4000mini was used for exposure and detection.

HBV [3] = test: Compound 1 in combination with TDF in pAAV-HBV1.2 high-pressure tail vein injection mouse model; conditions: Compound 1 10 mg/kg i.v. weekly x4; TDF 53 mg/kg gavage daily 10 days; observed 7 weeks
Method: After the mice serum were diluted 20-fold with PBS, the HBsAg and HBeAg titers of the serum were detected by using Abbott i2000SR microparticle chemiluminescence automatic detector. The serum HBV DNA was extracted by QIAamp DNA Mini Kit (Qiagen), the HBV DNA level in serum was quantified by Realtime-PCR (LightCycler 480, Roche) using DNA Amplification SYBR Green Kit (Roche), and the HBV plasmid PSM2 products with a series of concentration gradients were used as standards. The HBV primers used in this experiment were synthesized by Invitrogen (Shanghai) Trading Co., Ltd., and the primer sequences were as follows: HBV Hope-F (5′ to 3′ […]) and HBV Hope-R (5′ to 3′ […]). The liver tissues of mice were subjected to conventional formalin-fixation and paraffin-embedding, the resultant 4 μm sections were baked at 65° C. for 2 h, dehydrated with conventional ethanol gradients, infiltrated with hydrogen peroxide at room temperature for 30 min, washed with PBS for 5 min/time, 3 times in total, and blocked at room temperature for 1 h. […]

[4] = Liver damage after Compound 1 injection in HBV-infected mice (serum ALT/AST, HE staining of liver sections)
From the text: (§1) Chronic HBV infection mouse models were established by high-pressure tail vein injection of pAAV-HBV1.2 plasmid or recombinant virus rAAV8-1.3HBV injection of C57BL/6J mice (6 to 8 weeks of age, weight 20 f 2 g). […] Glutamic-oxalacetic transaminase (AST/GOT) kit (Nanjing Jiancheng, C010-2) and glutamic-pyruvic transaminase (ALT/GPT) kit (Nanjing Jiancheng, C009-2) were used to detect serum ALT and AST levels. Western blot was used to detect the expression of cIAPs molecules in liver tissues, and β-actin was used as a control. Intrahepatic inflammation and hepatocyte necrosis were detected by HE staining of liver tissue sections.

cIAP2 = molecular target: T1, cIAP2 (Mus musculus, UniProt O08863); test: Western blot of cIAPs molecules in liver tissue after Compound 1 injection; conditions: 10 mg/kg i.v.
T1 construct: Western blot was used to detect the expression of cIAPs molecules in liver tissues; from tissue; host or cells: liver tissue of C57BL/6J mice (HBV model, pAAV-HBV1.2)
T1 sequence (O08863 whole entry): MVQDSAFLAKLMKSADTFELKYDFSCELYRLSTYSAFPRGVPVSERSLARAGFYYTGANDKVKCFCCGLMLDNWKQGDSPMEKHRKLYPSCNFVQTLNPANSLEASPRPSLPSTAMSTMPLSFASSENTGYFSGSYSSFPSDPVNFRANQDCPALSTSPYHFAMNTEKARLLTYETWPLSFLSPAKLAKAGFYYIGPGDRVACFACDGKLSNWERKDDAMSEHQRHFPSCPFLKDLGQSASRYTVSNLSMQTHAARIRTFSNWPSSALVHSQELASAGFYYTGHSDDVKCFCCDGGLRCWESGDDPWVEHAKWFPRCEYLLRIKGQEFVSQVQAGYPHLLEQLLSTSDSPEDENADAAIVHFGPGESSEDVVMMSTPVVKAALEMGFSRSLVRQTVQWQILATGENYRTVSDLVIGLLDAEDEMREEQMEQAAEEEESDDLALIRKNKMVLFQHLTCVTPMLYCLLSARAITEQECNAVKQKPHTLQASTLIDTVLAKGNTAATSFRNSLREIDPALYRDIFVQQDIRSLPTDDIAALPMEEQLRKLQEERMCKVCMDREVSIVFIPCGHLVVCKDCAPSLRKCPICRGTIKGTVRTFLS
From the text: as §1

[5] = tested on: HBcAg-positive liver cells; test: Apoptosis of HBV-infected liver cells, HBcAg immunofluorescence and Tunnel double staining, rAAV8-HBV1.3 virus injection mouse model; conditions: 20 mg/kg i.v.; 12 h after injection
From the text: as §1

[6] = tested on: HBV-specific T cell response; test: HBV immune response in mice: liver lymphocyte counts and HBV-specific T cell response (flow cytometry, Core93-100 stimulation); conditions: 20 mg/kg once a week x4, 7th week
Method: There were 5 to 6 mice in each group, which were administered once a week for four consecutive times, and sacrificed on the 7th week, the mice liver lymphocytes were isolated, and cell counts and flow cytometry were used to detect the expression of CD4 and CD8 molecules in lymphocytes in the liver. The detection of HBV-specific T cell response was performed by using HBV core monopeptide (Core93-100) to stimulate lymphocytes, and the counts of CD4+ and CD8+ T cells that secreted IFNγ, TNFα and IL-2 were detected by flow cytometry cytokine intracellular staining method.

HBV [7] = test: Compound 1 in combination with IFNα2a in chronic HBV infection mouse model (pAAV-HBV1.2 plus pKCMvint IFNα-2a or control plasmid)
Method: One day after modeling, the mice were divided into 4 groups. […] There were 5 mice in each group (except Group D that included 7 mice), the administration was performed for consecutive 3 times, i.e., on the day 1 after modeling, and on the days 7 and 14 after modeling; blood was collected once at orbital margin one day before the administration, and serum HBsAg/HBeAg levels were detected using Roche 601 instrument.

HBV [8] = test: Compound 1 in combination with anti-PD1 antibody in chronic HBV infection mouse model (pAAV-HBV1.2 plasmid)
From the text: Among them, there were 7 mice in each group.

HBV [9] = test: Compound 1 and SF18 in mouse model established by rAAV8-HBV1.3 (ayw) virus tail vein injection; conditions: 20 mg/kg i.v.
Method: Among them, there were 3 mice in each group. Administration was carried out for consecutive four weeks, blood was collected at orbital margin once per week, and HBsAg/HBeAg levels in supernatant were detected by Roche 601 instrument.

[10] = 20 mg/kg i.v. once a week x4, on the 5th week, faster than 10 mg/kg group
[11] = Compound 1 injection groups (10 and 20 mg/kg i.v., once a week x4), up to the 7th week
[12] = 10 mg/kg i.v., 12, 24, 48 hours after injection
[13] = stimulation with HBV core monopeptide (Core93-100)
[14] = Compound 1 20 mg/kg i.v. once per week, anti-PD1 antibody 200 μg/mice/time i.p. twice per week, five weeks

CC[C@H](NC(=O)[C@H](C)NC)C(=O)N1C[C@@H](O)C[C@H]1Cc1c(-c2[nH]c3cc(F)ccc3c2C[C@@H]2C[C@H](O)CN2C(=O)[C@H](CC)NC(=O)[C@H](C)NC)[nH]c2cc(F)ccc12 [Birinapant, reference compound]
proportion of mice with serum HBsAg levels below the lower limit of detection (HBV [1]; 20 mg/kg i.v. once a week): 57%
serum HBsAg level (individual) (HBV [1]; 20 mg/kg i.v.): decreased significantly

CN[C@@H](C)C(=O)N[C@H]1CN(S(=O)(=O)c2cccc(S(=O)(=O)N3CC[C@H]4CC[C@@H](C(=O)NC(c5ccccc5)c5ccccc5)N4C(=O)[C@@H](NC(=O)[C@H](C)NC)C3)c2)CC[C@H]2CCC(C(=O)NC(c3ccccc3)c3ccccc3)N2C1=O (stereo partly drawn) [Compound 1]
serum HBV DNA (HBV [2]; [10]): completely eliminated
serum HBsAg (HBV [2]; [10]): completely eliminated
HBV replication intermediate in liver tissue (Southern blot) (HBV [2]; 7 weeks after administration, compared with saline group): no HBV replication intermediate was detected
serum HBV DNA (HBV [2]; [11]): below the detection limit
serum HBsAg (HBV [2]; [11]): below the detection limit
HBcAg expression in liver (immunohistochemical staining) (HBV [2]; after 7 weeks of administration): not observed
serum HBsAg clearance rate in comparison with control group (HBV [3]): statistically significant differences
time at which serum ALT returned to normal levels ([4]; 10 mg/kg i.v.): around 48 hours
time at which serum ALT rose to the highest value ([4]; 10 mg/kg i.v.): 12 h
time at which serum AST returned to normal levels ([4]; 10 mg/kg i.v.): around 48 hours
time at which serum AST rose to the highest value ([4]; 10 mg/kg i.v.): 12 h
serum ALT change after injection [4, 12]: transient increase
serum AST change after injection [4, 12]: transient increase
liver tissue HE staining ([4]; 10 mg/kg i.v., 12 hours after injection, vicinity of portal areas, with lymphocyte infiltration): scattered necrotic lesions
intrahepatic inflammation / fulminant hepatitis ([4]; after Compound 1 injection, only transient intrahepatic inflammation): did not cause fulminant hepatitis
time at which inhibition of cIAP2 reached the strongest value (cIAP2): 12 h
inhibitory effect on cIAP2 in liver tissues (Western blot) (cIAP2; 12, 24, 48 h): strong inhibitory effect
apoptosis of HBcAg-positive liver cells [5]: could be induced
count of infiltrated CD4+ T cells in the liver vs control [6]: significantly increased
count of infiltrated CD8+ T cells in the liver vs control [6]: significantly increased
total lymphocyte number in the liver vs normal saline control [6]: significantly higher
counts of CD4+ T cells that secreted IFNγ, TNFα and IL-2 [6, 13]: increased significantly
counts of CD8+ T cells that secreted IFNγ, TNFα and IL-2 [6, 13]: increased significantly
serum HBsAg compared with Group C (IFNα-2a) (HBV [7]; 21st day, P 0.008): decreased significantly
serum HBeAg compared with Group A (saline) (HBV [7]; days 7, 14, 21 (P 0.004 on 7th day, 0.021 on 7th day as printed, 0.001 on 21st day)): statistically significant differences
serum HBsAg compared with Group A (saline) (HBV [7]; days 7, 14, 21 (P 0.010, 0.008, 0.004), Compound 1 10 mg/kg i.v. days 1, 7, 14, IFNα-2a plasmid-expressed): statistically significant differences
clearance effect of HBsAg (overall level) vs saline injection group (HBV [1]; 20 mg/kg i.v. once a week, five weeks): statistically significant difference
proportion of mice with serum HBsAg levels below the lower limit of detection (HBV [1]; 20 mg/kg i.v. once a week): 86%
serum HBsAg level (individual) (HBV [1]; 20 mg/kg i.v.): decreased significantly
serum HBsAg level compared with Brinapant group (HBV [1]; 20 mg/kg i.v., after one week, p=0.035): significantly lower than that of the Brinapant group
clearance effect of HBsAg and HBeAg, overall comparison (HBV [1]; same dosage and mode of administration (20 mg/kg i.v.)): superior to Birinapant
serum HBeAg (individual) compared with Group A (saline) (HBV [8]; 1st and 2nd weeks (P 0.029, 0.009)): statistically significant differences
serum HBeAg compared with Group C (anti-PD1 antibody) (HBV [8]; 1st and 2nd weeks, P week 1 0.016 (Group B), 0.007 (Group D), week 2 0.007, 0.002): decreased more significantly
serum HBeAg level (overall) (HBV [8]; [14]): significantly reduce
serum HBsAg level (overall) (HBV [8]; [14]): significantly reduce
anti-HBV effect (conclusion) (HBV [9]; four weeks): anti-HBV effect

CN[C@@H](C)C(=O)N[C@H]1CN(C(=O)Nc2ccc(NC(=O)N3CC[C@H]4CC[C@@H](C(=O)NC(c5ccccc5)c5ccccc5)N4C(=O)[C@@H](NC(=O)[C@H](C)NC)C3)cc2)CC[C@H]2CC[C@@H](C(=O)NC(c3ccccc3)c3ccccc3)N2C1=O [SF18]
deaths during administration (HBV [9]; 3 mice in the group): one mice died on the 2nd week and 4th week
anti-HBV effect (conclusion) (HBV [9]; four weeks): stronger than that of Compound 1
decrease rate of HBeAg in mice serum (HBV [9]; four weeks): significantly faster than those of the Compound 1 group
decrease rate of HBsAg in mice serum (HBV [9]; four weeks): significantly faster than those of the Compound 1 group
